Laboratory results reported in US7977371B2, “Pyrrole derivative having ureido group and aminocarbonyl group as substituents” (Santen Pharmaceutical Co., Ltd., priority 2007, dated 2011).

test system: TNF-α-induced IL-6 production in normal human skin fibroblast-derived CCD-1059Sk cells; experiment: Test for measurement of inhibitory activity against TNF-α-induced IL-6 production; type: cell-based; settings: Homo sapiens, CCD-1059Sk, 16 h, test compound at 10 μM, TNF-α stimulation 16 hours, inhibition ratio of 100% or more is indicated as 100%
Description: 1. Test for Measurement of Inhibitory Activity Against IL-6 Production
An inhibitory effect on TNF-α-induced IL-6 production in normal human skin fibroblast-derived CCD-1059Sk cells (ATCC No. CRL-2072) was evaluated. The amount of IL-6 was determined by the homogeneous time-resolved fluorescence method using HTRF™ Human IL-6 kit (Cat. No. 62IL6PEB, manufactured by CIS-Bio international, Inc.). Specific test methods will be described below.
(Preparation of Test Compound Solution)
After a test compound was dissolved in dimethyl sulfoxide, the resulting solution was diluted with D-MEM medium containing 0.1% heat-inactivated fetal bovine serum, 0.1 mM MEM non-essential amino acid solution, 100 U/mL penicillin and 100 μg/mL streptomycin (hereinafter referred to as “medium”), whereby a 40 μM test compound solution was prepared.
(Test Method and Measurement Method)
1) CCD-1059Sk cells prepared at a density of 3×10^5 cells/mL were inoculated in a 384-well plate in an amount of 10 μL per well such that the cell density was 3×10^3 cells/well.
2). After the plate was incubated at 37° C. for several hours in a CO2 incubator, 5 μL of the test compound was added to each well.
3) After the plate was incubated at 37° C. for 1 hour in a CO2 incubator, 5 μL of a 40 ng/mL TNF-α solution was added to each well.
4) After the plate was incubated at 37° C. for 16 hours in a CO2 incubator, 10 μL of a cryptate-labeled anti-IL-6 antibody and an XL665-labeled anti-IL-6 antibody containing potassium fluoride was added to each well.
5) After the plate was incubated at room temperature for several hours, a fluorescence intensity ratio (665 nm/620 nm) was determined for each well using a multimode plate reader Analyse™ HT (manufactured by Molecular Device Corporation) and Criterion Host software version 2.00 (manufactured by Molecular Device Corporation), and then, the amount of IL-6 was calculated.
6) The same procedures as in the above 1) to 5) were performed except that 0.4% dimethyl sulfoxide was added in place of the test compound, and the obtained result was designated as the control.
7) The same procedures as in the above 1) to 5) were performed except that 0.4% dimethyl sulfoxide and the medium were added in place of the test compound and the TNF-α solution, respectively, and the obtained result was designated as the background.
(Calculation Formula of IL-6 Production Inhibition Ratio)
An IL-6 production inhibition ratio (%) was calculated from the following formula. IL-6 Production Inhibition Ratio (%)=100×{1−[(Amount of IL-6 for Test Compound)−(Amount of IL-6 for Background)/(Amount of IL-6 for Control)−(Amount of IL-6 for Background)]} (Evaluation Results)

Row | Compound | inhibition at 10 µM [%]
1 | NC(=O)Nc1[nH]c(-c2ccc(Br)cc2)cc1C(N)=O [Compound 1-1, 2-Aminocarbonylamino-5-(4-bromophenyl)pyrrole-3-carboxamide] | 94
2 | NC(=O)Nc1[nH]c(-c2ccccn2)cc1C(N)=O [Compound 1-2, 2-Aminocarbonylamino-5-(pyridin-2-yl) pyrrole-3-carboxamide] | 85
3 | NC(=O)Nc1[nH]c(-c2ccccc2)cc1C(N)=O [Compound 1-4, 2-Aminocarbonylamino-5-phenylpyrrole-3-carboxamide] | 88
4 | NC(=O)Nc1[nH]c(-c2ccc(-c3ccccc3)cc2)cc1C(N)=O [Compound 1-5, 2-Aminocarbonylamino-5-(4-biphenyl) pyrrole-3-carboxamide] | 67
5 | NC(=O)Nc1[nH]c(-c2cccc([N+](=O)[O-])c2)cc1C(N)=O [Compound 1-6, 2-Aminocarbonylamino-5-(3-nitrophenyl) pyrrole-3-carboxamide] | 92
6 | Cc1ccc(-c2cc(C(N)=O)c(NC(N)=O)[nH]2)cc1 [Compound 1-11, 2-Aminocarbonylamino-5-(4-methylphenyl) pyrrole-3-carboxamide] | 88
7 | NC(=O)Nc1[nH]c(-c2ccccc2C(F)(F)F)cc1C(N)=O [Compound 1-13, 2-Aminocarbonylamino-5-(2-trifluoromethylphenyl)pyrrole-3-carboxamide] | 93
8 | N#Cc1ccc(-c2cc(C(N)=O)c(NC(N)=O)[nH]2)cc1 [Compound 1-15, 2-Aminocarbonylamino-5-(4-cyanophenyl) pyrrole-3-carboxamide] | 80
9 | NC(=O)Nc1[nH]c(-c2cccs2)cc1C(N)=O [Compound 1-16, 2-Aminocarbonylamino-5-(thiophen-2-yl) pyrrole-3-carboxamide] | 94
10 | COc1ccc(OC)c(-c2cc(C(N)=O)c(NC(N)=O)[nH]2)c1 [Compound 1-17, 2-Aminocarbonylamino-5-(2,5-dimethoxyphenyl) pyrrole-3-carboxamide] | 96
11 | COc1ccc(F)cc1-c1cc(C(N)=O)c(NC(N)=O)[nH]1 [Compound 1-19, 2-Aminocarbonylamino-5-(5-fluoro-2-methoxyphenyl)pyrrole-3-carboxamide] | 100
12 | Cc1c(-c2ccc(Br)cc2)[nH]c(NC(N)=O)c1C(N)=O [Compound 1-21, 2-Aminocarbonylamino-5-(4-bromophenyl)-4-methylpyrrole-3-carboxamide] | 88
13 | COc1cc(C)c(Cl)cc1-c1cc(C(N)=O)c(NC(N)=O)[nH]1 [Compound 1-24, 2-Aminocarbonylamino-5-(5-chloro-2-methoxy-4-methylphenyl)pyrrole-3-carboxamide] | 99
14 | NC(=O)Nc1[nH]c(-c2cc(Cl)ccc2Cl)cc1C(N)=O [Compound 1-27, 2-Aminocarbonylamino-5-(2,5-dichlorophenyl) pyrrole-3-carboxamide] | 100
15 | NC(=O)Nc1[nH]c(-c2cccc(F)c2)cc1C(N)=O [Compound 1-28, 2-Aminocarbonylamino-5-(3-fluorophenyl) pyrrole-3-carboxamide] | 97
16 | CCOC(=O)c1ccc(-c2cc(C(N)=O)c(NC(N)=O)[nH]2)cc1 [Compound 1-30, 2-Aminocarbonylamino-5-(4-ethoxycarbonylphenyl) pyrrole-3-carboxamide] | 90
17 | NC(=O)Nc1[nH]c(-c2ccc(F)c(Cl)c2)cc1C(N)=O [Compound 1-36, 2-Aminocarbonylamino-5-(3-chloro-4-fluorophenyl)pyrrole-3-carboxamide] | 100
18 | COc1ccc(-c2cc(C(N)=O)c(NC(N)=O)[nH]2)cc1Cl [Compound 1-37, 2-Aminocarbonylamino-5-(3-chloro-4-methoxyphenyl)pyrrole-3-carboxamide] | 98

same assay, conditions: test compound at 10 μM, TNF-α stimulation 16 hours, inhibition ratio of 100% or more is indicated as 100%

Row | Compound | IL-6 production inhibition ratio [%]
19 | COc1ccc(Cl)cc1-c1cc(C(N)=O)c(NC(N)=O)[nH]1 [Compound 1-22, 2-Aminocarbonylamino-5-(5-chloro-2-methoxyphenyl)pyrrole-3-carboxamide] | 100
